Laboratory results published in patent EP4506003A1, “HALOGEN DERIVATIVES OF (4´,5´- METHYLENEDIOXYPHENYL)-6,7-DIMETHOXY-1,2,3,4-TETRAHYDROISOQUINOLINE FOR USE IN THE TREATMENT OF LEUKEMIA” (S.Yu Yunusov Institute of Chemistry of Plant Substances of …, priority 2023, dated 2025).
Marks after values point to notes of the source that are not given here.

Experiments:
[1] = system: Rat liver hepatocytes; assay: MTT cytotoxicity on hepatocytes; type: cell-based; settings: 24 hours
Description: (§1) The cytotoxic properties of the compounds were determined in vitro using the MTT method in 96-well plates (Costar, USA). […] Rat liver hepatocytes were obtained according to the method, human blood mononuclear cells - according to [23]. Fibroblast cells were obtained according to the method of [24] with some modifications. Cell cultures were subcultured into 96-well plates according to the method of [21] by adding 100 μl of nutrient medium. The CCRF-CEM suspension culture was poured into a tube, centrifuged at 800 rpm for 10 minutes, and the supernatant was discarded. […] Data obtained in 3 independent experiments were expressed as the mean value for each concentration ± standard error of the mean, relative to the control values (cells without test compounds). The cytotoxic effect of each of the studied compounds was compared with the effect of the cytostatic Cisplatin-Naprod (India), containing cisplatin as an active component. Table 1: IC50 μM value for test compounds

[2] = system: CCRF-CEM (CCL-119) (T-lymphoblastic leukemia); assay: MTT cytotoxicity on CCRF-CEM cells; type: cell-based; settings: 24 hours
Description: as §1

[3] = system: fibroblasts; assay: MTT cytotoxicity on fibroblasts; type: cell-based; settings: 24 hours
Description: as §1

[4] = system: blood of patients with AML; assay: Hemogram of blood of patients with AML after exposure (Example 12, Table 9); type: cell-based; settings: AML (Table 9); 10 µg/ml; 3 hours, 37.0°C
Description: (§2) The drugs Cytosar (Alexan) (Ebewe Pharma, Austria) and doxorubicin (Naprod, Mumbai, India) recommended by WHO for the treatment of the above oncohematological diseases were used as comparison drugs.
(§3) 5 ml of venous blood from sick and conditionally healthy individuals were collected into Vacutainer tubes with the addition of EDTA (Himedia, India).
(§4) The resulting blood was divided into aliquots of 1 ml and 10 µl (10 µg/ml) of the studied drugs (cytosar, doxorubicin, F1 and F2) were added to each tube.

[5] = system: blood of patients with leukemia (combined group); assay: Hemogram of blood of patients with leukemia (combined group) after exposure; type: cell-based; settings: 10 µg/ml, 3 hours, 37.0°C
Description: (§5) The effect of compounds F1 and F2 was studied on biological material (blood) of patients with hematological malignancies (leukemia), as well as for individual nosologies, in particular, patients with leukemia (combined group) (n=224), T-ALL (n=84), B-ALL (n=100), ALL (n=100), AML (n= 98), AML (n=94) and AML (n= 98) were studied. A total of 798 blood samples from patients with leukemia were examined.
as §2, §3, §4

[6] = Acute toxicity study (LD50); settings: both, outbred white, mouse, in vivo, ip
Description: We studied the acute toxicity of compound F1 in vivo. The experiments were carried out on outbred white mice of both sexes weighing 18-20 g (24 pcs.). The animals were divided into groups of 12 mice each. The compound was dissolved in DMSO and then adjusted to the desired concentration with 0.9% NaCl solution and administered intraperitoneally and subcutaneously in a dose range from 5.0 to 200.0 mg/kg. […] The maximum relative error of the applied dose was no more than 5%.
We studied the acute toxicity of compound F2 in vivo. The experiments were carried out on outbred white mice of both sexes weighing 18-20 g (24 pcs.). The animals were divided into groups of 12 mice each. The compound was dissolved in DMSO and then brought to the desired concentration with 0.9% NaCl solution and administered intraperitoneally and subcutaneously to animals in a dose range from 5.0 to 200.0 mg/kg. […] The maximum relative error of the administered dose was no more than 5%.

[7] = system: blood of conditionally healthy individuals; assay: Hemogram of blood of conditionally healthy individuals after exposure to the drugs; settings: 10 µg/ml, 3 hours, 37.0°C
Description: as §3, §4

[8] = system: blood of patients with AML; assay: Hemogram of blood of patients with AML after exposure (Example 13, Table 10; also OMML); type: cell-based; settings: AML (Table 10); 10 µg/ml; 3 hours, 37.0°C
Description: as §2, §3, §4

[9] = system: blood of patients with AML; assay: Hemogram of blood of patients with AML after exposure (Example 14, Table 11); type: cell-based; settings: AML (Table 11); 10 µg/ml; 3 hours, 37.0°C
Description: as §5, §2, §3, §4

[10] = system: blood of patients with B-ALL; assay: Hemogram of blood of patients with B-ALL after exposure; type: cell-based; settings: 10 µg/ml, 3 hours, 37.0°C
Description: A total of 798 blood samples from patients with leukemia were examined.
as §2, §3, §4

[11] = system: blood of patients with T-ALL; assay: Hemogram of blood of patients with T-ALL after exposure; type: cell-based; settings: 10 µg/ml, 3 hours, 37.0°C
Description: as §5, §2, §3, §4

[12] = system: blood of patients with ALL; assay: Hemogram of blood of patients with ALL after exposure; type: cell-based; settings: 10 µg/ml, 3 hours, 37.0°C
Description: as §5, §3, §4

In the case of N.N.[Cl][Pt][Cl] [Cisplatin, cisplatin, reference compound], the IC50 [1] is reported as 28.7 µM, the IC50 [2] is reported as 12.4 µM and the IC50 [3] is reported as 29.4 µM.

With COc1cccc2c1C(=O)c1c(O)c3c(c(O)c1C2=O)C[C@@](O)(C(=O)CO)C[C@@H]3O[C@H]1C[C@H](N)[C@H](O)[C@H](C)O1 [Doxorubicin, doxorubicin, reference compound] the “Band (s/n) neutrophils” value [4] was 0,5±0,4%, the Blasts [4] was 68,4±3,6 % and the Destroyed cells [4] was 5,6±1,4 %. For the same compound, the Eosinophils [4] was 0,8±0,7%, the Lymphocytes [4] was 13,2±2,4% and the Monocytes [4] was 5.2±1,5%. The Myelocytes [4] was 0,9±0,8%, the Promyelocytes [4] was 0,0±0,0% and the “Segmented (s/i) neutrophils” value [4] was 5,5±1,2%. The “Band (s/n) neutrophils” value [5] was 1,8±0,5%, the Blasts [5] was 65,6±2,6 % and the Destroyed cells [5] was 11,4±2,2 %. For the same compound, the Eosinophils [5] was 3,8±2,4%, the Lymphocytes [5] was 15,0±1,8% and the Monocytes [5] was 5,3±1,2%. The Myelocytes [5] was 3,3±1,2%, the Promyelocytes [5] was 0,0±0,000% and the “Segmented (s/i) neutrophils” value [5] was 5,8±0,7%. For the same compound, the LD50 at 1 week [6] was 10.8 mg/kg, the “Band (s/n) neutrophils” value [7] was 1,5±0,2% and the Blasts [7] was 0,0±0,0%. For the same compound, the Destroyed cells [7] was 0,0±0,0%, the Eosinophils [7] was 1,7±0,2% and the Lymphocytes [7] was 28,1±0,9%. For the same compound, the Monocytes [7] was 6,1±0,4%, the Myelocytes [7] was 0,0±0,0% and the Promyelocytes [7] was 0,0±0,0%. For the same compound, the “Segmented (s/i) neutrophils” value [7] was 62,6±1,0%, the “Band (s/n) neutrophils” value [8] was 3,4±0,5% and the Blasts [8] was 58,4±1,9%. The Destroyed cells [8] was 15,1±1,1 %, the Eosinophils [8] was 0,7±0,3% and the Lymphocytes [8] was 6,1±0,7%. The Monocytes [8] was 1.6±0,3 %, the Myelocytes [8] was 4,0±0,4 % and the Promyelocytes [8] was 0,0±0,0%. The “Segmented (s/i) neutrophils” value [8] was 10,8±1,0%, the “Band (s/n) neutrophils” value [9] was 0,8±0,2% and the Blasts [9] was 45,4±1,9 %. The Destroyed cells [9] was 24,0±4,0 %, the Eosinophils [9] was 0,0±0,0% and the Lymphocytes [9] was 9,7±1,5%. The Monocytes [9] was 11.2±2,3 %, the Myelocytes [9] was 0,0±0,0% and the Promyelocytes [9] was 0,0±0,0%. The “Segmented (s/i) neutrophils” value [9] was 9,1±1,5%, the “Band (s/n) neutrophils” value [10] was 0,7±0,2% and the Blasts [10] was 64,3±3,7%. For the same compound, the Destroyed cells [10] was 13,0±2,8 %, the Eosinophils [10] was 0,1±0,1% and the Lymphocytes [10] was 15,0±2,9%. For the same compound, the Monocytes [10] was 1.6±0,5%, the Myelocytes [10] was 0,6±0,3% and the Promyelocytes [10] was 0,0±0,0%. For the same compound, the “Segmented (s/i) neutrophils” value [10] was 4,9±0,9%, the “Band (s/n) neutrophils” value [11] was 1,2±0,1 % and the Blasts [11] was 67,2±0,9 %. For the same compound, the Destroyed cells [11] was 13,4±0,5 %, the Eosinophils [11] was 0,0±0,0% and the Lymphocytes [11] was 9,8±0,1 %. For the same compound, the Monocytes [11] was 1.7±0,2%, the Myelocytes [11] was 0,0±0,0% and the Promyelocytes [11] was 0,0±0,0%. The “Segmented (s/i) neutrophils” value [11] was 6,7±0,4%, the “Band (s/n) neutrophils” value [12] was 0,3±0,1% and the Blasts [12] was 76,4±1,7 %. For the same compound, the Destroyed cells [12] was 9,0±1,1*^ %, the Eosinophils [12] was 0,2±0,1% and the Lymphocytes [12] was 9,9±1,3%. For the same compound, the Monocytes [12] was 1.9±0,6%, the Myelocytes [12] was 0,2±0,1% and the Promyelocytes [12] was 0,0±0,0%. The “Segmented (s/i) neutrophils” value [12] was 2,2±0,3%.

With Nc1ccn([C@@H]2O[C@H](CO)[C@@H](O)[C@@H]2O)c(=O)n1 [Cytosar, cytarabine, reference compound] the “Band (s/n) neutrophils” value [4] was 1,2±0,5%, the Blasts [4] was 65,4±3,9 % and the Destroyed cells [4] was 6,3±1,7 %. For the same compound, the Eosinophils [4] was 1,0±0,9%, the Lymphocytes [4] was 12,5±1,7% and the Monocytes [4] was 3,4±0,8%. For the same compound, the Myelocytes [4] was 1,4±0,6%, the Promyelocytes [4] was 0,9±0,6% and the “Segmented (s/i) neutrophils” value [4] was 5,6±1,2%. For the same compound, the “Band (s/n) neutrophils” value [5] was 1,1±0,4 %, the Blasts [5] was 65,9±2,8 % and the Destroyed cells [5] was 9,0±1,6 %. The Eosinophils [5] was 0,4±0,3%, the Lymphocytes [5] was 13,7±1,6% and the Monocytes [5] was 3,5±0,6 %. For the same compound, the Myelocytes [5] was 1,1±0,3 %, the Promyelocytes [5] was 0,2±0,1% and the “Segmented (s/i) neutrophils” value [5] was 6,7±1,1%. For the same compound, the “Band (s/n) neutrophils” value [7] was 1,8±0,2 %, the Blasts [7] was 0,0±0,0% and the Destroyed cells [7] was 0,0±0,0%. The Eosinophils [7] was 2,1±0,4%, the Lymphocytes [7] was 28,0±1,2% and the Monocytes [7] was 6,6±0,4 %. For the same compound, the Myelocytes [7] was 0,0±0,0%, the Promyelocytes [7] was 0,0±0,0% and the “Segmented (s/i) neutrophils” value [7] was 61,5±1,2%. For the same compound, the “Band (s/n) neutrophils” value [8] was 3,6±0,5%, the Blasts [8] was 50,2±2,8% and the Destroyed cells [8] was 7,8±0,6 %. For the same compound, the Eosinophils [8] was 0,6±0,3%, the Lymphocytes [8] was 6,6±0,7% and the Monocytes [8] was 1,2±0,2 %. For the same compound, the Myelocytes [8] was 16,0±1,4 %, the Promyelocytes [8] was 0,0±0,0% and the “Segmented (s/i) neutrophils” value [8] was 14,1±1,2 %. For the same compound, the “Band (s/n) neutrophils” value [9] was 3,5±1,0 %, the Blasts [9] was 59,5±3,7 % and the Destroyed cells [9] was 12,4±1,7 %. For the same compound, the Eosinophils [9] was 4,0±0,2%, the Lymphocytes [9] was 8,4 ±0,9% and the Monocytes [9] was 4,9±1,2 %. For the same compound, the Myelocytes [9] was 1,8±0,4%, the Promyelocytes [9] was 0,0±0,0% and the “Segmented (s/i) neutrophils” value [9] was 9,2±2,3%. For the same compound, the “Band (s/n) neutrophils” value [10] was 0,6±0,3%, the Blasts [10] was 63,5±3,4 % and the Destroyed cells [10] was 8,9±2,2 %. The Eosinophils [10] was 0,1±0,1%, the Lymphocytes [10] was 17,2±2,0% and the Monocytes [10] was 4,6±1,2%. The Myelocytes [10] was 0,7±0,4%, the Promyelocytes [10] was 0,0±0,0% and the “Segmented (s/i) neutrophils” value [10] was 6,1±0,9%. For the same compound, the “Band (s/n) neutrophils” value [11] was 1,0±0,1%, the Blasts [11] was 73,5±2,0 % and the Destroyed cells [11] was 8,8±1,0 %. The Eosinophils [11] was 0,0±0,0%, the Lymphocytes [11] was 11,5±1,0 % and the Monocytes [11] was 2,3±0,4%. For the same compound, the Myelocytes [11] was 0,0±0,0%, the Promyelocytes [11] was 0,0±0,000% and the “Segmented (s/i) neutrophils” value [11] was 3,0±0,4 %. For the same compound, the “Band (s/n) neutrophils” value [12] was 0,4±0,2%, the Blasts [12] was 78,7±1,4 % and the Destroyed cells [12] was 4,8±1,4 %. For the same compound, the Eosinophils [12] was 0,0±0,0%, the Lymphocytes [12] was 11,4±0,8% and the Monocytes [12] was 2,2±0,4%. The Myelocytes [12] was 0,2±0,1%, the Promyelocytes [12] was 0,0±0,0% and the “Segmented (s/i) neutrophils” value [12] was 2,4±0,6%.
